Type in all cases: biochemical
Assay [1] deals with T1, KRAS G12D (amino acids 1-169) (Homo sapiens, UniProt P01116, G12D).
T1 construct: made in house; host or cells: E. coli
Nature of the assay: SOS-catalyzed nucleotide exchange assay (Procedure B, BODIPY FL GDP displacement), KRAS G12D. The settings on record: read-out: KRAS G12D GNE IC50. On the procedure:
(§1) Procedure for SOS-Catalyzed Nucleotide Exchange Assay for KRAS-G12C/D/V/WT (Procedure B)
(§2) Recombinant KRAS G12C (amino acids 1-169, SEQ ID NO:9), KRAS G12D (amino acids 1-169, SEQ ID NO: 10), KRAS G12V (amino acids 1-169, SEQ ID NO: 11), KRAS WT (amino acids 1-169, SEQ ID NO:12) and SOS1 (amino acids 564-1049, SEQ ID NO: 13) proteins were expressed in E. coli and purified by affinity chromatography. To prepare each BODIPY™ FL GDP-bound KRAS protein, 50 μM KRAS proteins were incubated with 0.5 mM BODIPY™ FL GDP (Invitrogen, G22360) in a loading buffer (20 mM Tris-HCl pH 7.5, 50 mM NaCl, 1 mM DTT and 2.5 mM EDTA) for 1 hour on ice. After the incubation, MgCl2 was added to a final concentration of 10 mM, followed by an incubation at room temperature for 30 minutes. The mixtures were allowed to pass through a NAP-5 column to remove free nucleotides and purified BODIPY™ FL GDP-bound KRAS G12C, G12D, G12V and WT proteins were used for compound evaluation.
(§3) The inhibitory activity of compounds on recombinant KRAS is measured by the displacement of the bound BODIPY™ GDP. Specifically, 2.5 nM of each BODIPY™ FL GDP-bound KRAS complex was incubated with various concentrations of compound in a reaction buffer (20 mM Tris-HCl pH 7.5, 100 mM NaCl, 1 mM MgCl2, 2 mM DTT, 0.1% Tween 20) at 25° C. for 1 hour. After the incubation, recombinant SOS1 and GMPPNP (Jena Bioscience GmbH, NU-401) were added and incubated at room temperature for 30 minutes to proceed SOS1-dependent GDP-GTP exchange reaction on KRAS. Displacement of BODIPY™ FL GDP by Guanosine-5′-[(β,γ)-imido]triphosphate, Tetralithium salt (GMPPNP) was measured by calculating the ratio of fluorescence intensities of BODIPY™ FL before and after the exchange reaction. Percent Inhibition was calculated by setting the fluorescence ratio from the reaction without test compound (DMSO control) and the fluorescence ratio from the reaction without SOS1 and GMPPNP as 0% and 100% inhibition, respectively. Dose response curves were analyzed using a 4-parameter logistic model to calculate IC50 values.

Assay [2] concerns the target T2, KRAS G12C (amino acids 1-169) (Homo sapiens, UniProt P01116, G12C).
T2 construct: made in house; host or cells: E. coli
Nature of the assay: SOS-catalyzed nucleotide exchange assay (Procedure B, BODIPY FL GDP displacement), KRAS G12C. Conditions: read-out: KRAS G12C GNE IC50. On the procedure: as §1, §2, §3

Assay [3] concerns the target T3, KRAS WT (amino acids 1-169) (Homo sapiens, UniProt P01116).
T3 construct: made in house; host or cells: E. coli
Nature of the assay: SOS-catalyzed nucleotide exchange assay (Procedure B, BODIPY FL GDP displacement), KRAS WT. The settings on record: read-out: KRAS WT GNE IC50. On the procedure: as §1, §2, §3

Assay [4] addresses T4, KRAS G12V (amino acids 1-169) (Homo sapiens, UniProt P01116, G12V).
T4 construct: made in house; host or cells: E. coli
Nature of the assay: SOS-catalyzed nucleotide exchange assay (Procedure B, BODIPY FL GDP displacement), KRAS G12V. The settings on record: read-out: KRAS G12V GNE IC50. The procedure: as §1, §2, §3

The IC50 is the point on the concentration scale where inhibition reaches its midpoint.

T3 sequence (P01116 with tags, fused parts or gaps isoform P01116-2): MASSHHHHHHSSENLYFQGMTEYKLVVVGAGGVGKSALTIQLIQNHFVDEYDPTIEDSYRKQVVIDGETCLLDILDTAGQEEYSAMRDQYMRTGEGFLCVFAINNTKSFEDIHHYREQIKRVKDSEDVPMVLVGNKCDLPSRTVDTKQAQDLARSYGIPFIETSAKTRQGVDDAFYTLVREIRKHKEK
T2 sequence (P01116 with tags, fused parts or gaps isoform P01116-2 G12C): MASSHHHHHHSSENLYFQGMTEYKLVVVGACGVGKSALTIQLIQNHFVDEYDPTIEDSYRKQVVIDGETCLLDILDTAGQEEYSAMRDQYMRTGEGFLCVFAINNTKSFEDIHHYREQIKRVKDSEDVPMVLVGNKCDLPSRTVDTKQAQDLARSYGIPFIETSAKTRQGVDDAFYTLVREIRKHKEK
T1 sequence (P01116 with tags, fused parts or gaps isoform P01116-2 G12D): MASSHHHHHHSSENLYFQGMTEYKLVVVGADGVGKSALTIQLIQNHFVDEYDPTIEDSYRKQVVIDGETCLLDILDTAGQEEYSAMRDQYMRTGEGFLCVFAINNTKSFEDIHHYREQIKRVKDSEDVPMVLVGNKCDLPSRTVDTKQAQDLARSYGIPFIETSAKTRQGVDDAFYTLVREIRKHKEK
T4 sequence (P01116 with tags, fused parts or gaps isoform P01116-2 G12V): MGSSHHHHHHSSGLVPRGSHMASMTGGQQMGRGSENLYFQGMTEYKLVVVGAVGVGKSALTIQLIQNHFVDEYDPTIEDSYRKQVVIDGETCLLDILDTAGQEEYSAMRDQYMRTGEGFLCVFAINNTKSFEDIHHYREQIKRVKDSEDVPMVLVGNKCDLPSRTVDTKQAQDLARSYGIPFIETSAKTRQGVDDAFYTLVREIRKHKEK

Take `CO[C@]1(C)COCCN(c2nc(OC[C@@]34CCCN3C[C@H](F)C4)nc3sc4c(-c5c(C(F)(F)F)c(C)cc6[nH]ncc56)nccc4c23)C1` [Ex-203, (6S)-4-(2-(((2R,7aS)-2-fluorotetrahydro-1H-pyrrolizin-7a(5H)-yl)methoxy)-8-(6-methyl-5-(trifluoromethyl)-1H-indazol-4-yl)pyrido[4′,3′:4,5]thieno[2,3-d]pyrimidin-4-yl)-6-methoxy-6-methyl-1,4-oxazepane]: the IC50 in assay [1] turned out to be 493 nM; in assay [2], 590 nM; in assay [3], 767 nM; in assay [4] it was 936 nM.

`C[C@@]1(O)COCCN(c2nc(OC[C@@]34CCCN3C[C@H](F)C4)nc3sc4c(-c5c6c(cc7[nH]ncc57)CCC6C#N)nccc4c23)C1` (stereo partly drawn) [Ex-96, 4-(2-(((2R,7aS)-2-fluorotetrahydro-1H-pyrrolizin-7a(5H)-yl)methoxy)-4-((S)-6-hydroxy-6-methyl-1,4-oxazepan-4-yl)pyrido[4′,3′:4,5]thieno [2,3-d]pyrimidin-8-yl)-1,5,6,7-tetrahydrocyclopenta[f]in-dazole-5-carbonitrile]: the IC50 in assay [1] turned out to be 43.8 nM; in assay [2], 193 nM; in assay [3] it was 125 nM; in assay [4], 105 nM.

Consider `CC(=O)N1CC(Nc2nc(OC[C@@]34CCCN3C[C@H](F)C4)nc3sc4c(-c5c(C(F)(F)F)c(C)cc6[nH]ncc56)nccc4c23)C1` [Ex-190, 1-(3-((2-(((2R,7aS)-2-fluorotetrahydro-1H-pyr-rolizin-7a(5H)-yl)meth-oxy)-8-(6-methyl-5-(tri-fluoromethyl)-1H-indazol-4-yl)pyrido[4′,3′:4,5]thieno[2,3-d]pyrimidin-4-yl)amino)azetidin-1-yl)-ethan-1-one], for which the IC50 in assay [1] came to 438 nM; in assay [2], 340 nM; in assay [3], 432 nM; in assay [4], 490 nM.

With `CC1CC(F)(F)c2cc3[nH]ncc3c(-c3nccc4c3sc3nc(OC[C@@]56CCCN5C[C@H](F)C6)nc(N5CCOC[C@@](C)(O)C5)c34)c21` (stereo partly drawn) [Ex-101, (6S)-4-(8-(7,7-difluoro-5-methy1-1,5,6,7-tetrahydrocyclopenta[f]in-dazol-4-yl)-2-(((2R,7aS)-2-fluorotetrahydro-1H-pyrrolizin-7a(5H)-yl)methoxy)pyrido[4′,3′:4,5]thi-eno[2,3-d]pyrimidin-4-yl)-6-methyl-1,4-oxazepan-6-ol], the IC50 in assay [1] was determined as 1.99 nM; in assay [2], 6.44 nM; in assay [3] it was 4 nM; in assay [4], 5.16 nM.

On to `C[C@@]1(O)COCCN(c2nc(OC[C@@]34CCCN3C[C@H](F)C4)nc3sc4c(-c5c6c(cc7[nH]ncc57)CCC6C5CC5)nccc4c23)C1` (stereo partly drawn) [Ex-104, (6S)-4-(8-(5-cyclopropyl-1,5,6,7-tetrahydrocyclopenta[f]in-dazol-4-yl)-2-(((2R,7aS)-2-fluorotetrahydro-1H-pyrrolizin-7a(5H)-yl)methoxy)pyrido[4′,3′:4,5]thieno[2,3-d]pyrimidin-4-yl)-6-methyl-1,4-oxazepan-6-ol], for which the IC50 in assay [1] was 43.9 nM; in assay [2], 168 nM; in assay [3] it was 71.5 nM; in assay [4], 60 nM.

As for `C[C@@]1(O)COCCN(c2nc(OC[C@@]34CCCN3C[C@H](F)C4)nc3c(I)c4c(-c5c(C6CC6)c(Cl)cc6[nH]ncc56)nccn4c23)C1` [Ex-303, (S)-4-(9-(6-chloro-5-cyclopropyl-1H-indazol-4-yl)-2-(((2R,7aS)-2-fluorotetrahydro-1H-pyrrolizin-7a(5H)-yl)methoxy)-10-iodopyrazino [1′,2′:1,5]pyrrolo [3,2-d]pyrimidin-4-yl)-6-methyl-1,4-oxazepan-6-ol], the IC50 is 380 nM in assay [1], 1140 nM in assay [2], 732 nM in assay [3] and 837 nM in assay [4].

As to `C#CC1CCc2cc3[nH]ncc3c(-c3nccc4c3sc3nc(OC[C@@]56CCCN5C[C@H](F)C6)nc(N5CCOC[C@@](C)(O)C5)c34)c21` (stereo partly drawn) [Ex-166, (6S)-4-(8-(5-ethyn-yl-1,5,6,7-tetrahydro-cyclopenta[f]indazol-4-yl)-2-(((2R,7aS)-2-fluorotetrahydro-1H-pyrrolizin-7a(5H)-yl)methoxy)-pyrido[4′,3′:4,5]thieno[2,3-d]pyr-imidin-4-yl)-6-meth-yl-1,4-oxazepan-6-ol], the IC50 in assay [1] stood at 6.65 nM; in assay [2] it was 18 nM; in assay [3], 12.4 nM; in assay [4] it was 15.8 nM.

In the case of `Cc1cc2[nH]ncc2c(-c2nccc3c2sc2nc(OC[C@@]45CCCN4C[C@H](F)C5)nc(N)c23)c1C(F)(F)F` [Ex-189, 2-(((2R,7aS)-2-fluoro-tetrahydro-1H-pyrrolizin-7a(5H)-yl)methoxy)-8-(6-methyl-5-(trifluoromethyl)-1H-indazol-4-yl)pyrido [4′,3′:4,5]thieno[2,3-d] pyrimidin-4-amine], the half-inhibitory concentration (IC50) was determined as 3010 nM in assay [1], 1360 nM in assay [2], 2250 nM in assay [3] and 2200 nM in assay [4].

For `CC1(C)Cc2cc3[nH]ncc3c(-c3nccc4c3sc3nc(OC[C@@]56CCCN5C[C@H](F)C6)nc(N5CCOC[C@@](C)(O)C5)c34)c2C1` [Ex-112, (6S)-4-(8-(6,6-dimethyl-1,5,6,7-tetrahydrocyclopenta[f]in-dazol-4-yl)-2-(((2R,7aS)-2-fluorotetrahydro-1H-pyrrolizin-7a(5H)-yl)methoxy)pyrido[4′,3′:4,5]thi-eno[2,3-d]pyrimidin-4-yl)-6-methyl-1,4-oxazepan-6-ol], the IC50 in assay [1] worked out at 274 nM; in assay [2], 518 nM; in assay [3] it was 473 nM; in assay [4], 402 nM.

`Cc1cc2[nH]ncc2c(-c2nccn3c2c(F)c2nc(OC[C@@]45CCCN4C[C@H](F)C5)nc(N4CCOC[C@@](C)(O)C4)c23)c1C1CC1` [Ex-306, (S)-4-(9-(5-cyclopropy1-6-methyl-1H-indazol-4-yl)-10-fluoro-2-(((2R,7aS)-2-fluorotetrahydro-1H-pyrrolizin-7a(5H)-yl)methoxy)pyrazino[1′2′:1,5]pyrrolo[3,2-d]pyrimidin-4-yl)-6-methyl-1,4-oxazepan-6-o1]: the IC50 in assay [1] was 4.7 nM; in assay [2] it was 10.8 nM; in assay [3] it was 16.6 nM; in assay [4], 18.9 nM.

On to `Cc1cc2[nH]ncc2c(-c2nccc3c2sc2nc(OC[C@@]45CCCN4C[C@H](F)C5)nc(N4CCOCC5(CC(=O)N5)C4)c23)c1C(F)(F)F` (stereo partly drawn) [Ex-194, 9-(2-(((2R,7aS)-2-fluoro-tetrahydro-1H-pyrrolizin-7a(5/7)-yl)methoxy)-8-(6-methyl-5-(trifluorometh-yl)-1H-indazol-4-yl)pyrido [4′,3′:4,5]thieno[2,3-d]pyrimidin-4-yl)-6-oxa-1,9-diazaspiro[3.6]decan-2-one], for which the IC50 came out at 57.6 nM in assay [1], 55.1 nM in assay [2], 167 nM in assay [3] and 61.3 nM in assay [4].

In the case of `C#Cc1c(Cl)cc2[nH]ncc2c1-c1nccn2c1c(F)c1nc(OC[C@@]34CCCN3C[C@H](F)C4)nc(N3CCOC[C@@](C)(O)C3)c12` [Ex-304, (S)-4-(9-(6-chloro-5-ethynyl-1H-indazol-4-yl)-10-fluoro-2-(((2R,7aS)-2-fluorotetrahydro-1H-pyrrolizin-7a(5H)-yl)methoxy)pyrazino[1′,2′:1,5]pyrrolo[3,2-d]pyrimidin-4-yl)-6-methyl-1,4-oxazepan-6-ol], the IC50 in assay [1] amounted to 13.1 nM; in assay [2], 24.9 nM; in assay [3], 34 nM; in assay [4], 33.9 nM.

Source of the values: patent US20260176289A1, “SMALL MOLECULE INHIBITORS OF KRAS PROTEINS” (Merck Sharp & Dohme LLC, priority 2022, published 2026).
